Source: ChEMBL document CHEMBL4406853 (Eur J Med Chem, 2019)
Non-standard residues stand in square brackets, D forms with d. Residues, ends and D or L forms follow the SMILES beside them. ξ: configuration not given here. ξP = O=C(O)C1CCCN1

Assays:
[1] = biological target: T1, Mu-type opioid receptor (Homo sapiens, UniProt P35372); experiment: Inhibition of mu opioid receptor (unknown origin) in presence of DAMGO by [35S]-GTPgammaS binding assay; format: functional
[2] = biological target: T2, Delta-type opioid receptor (Homo sapiens, UniProt P41143); experiment: Inhibition of delta opioid receptor (unknown origin) in presence of DAMGO by [35S]-GTPgammaS binding assay; format: functional
[3] = biological target: T1, Mu-type opioid receptor; experiment: Inhibition of mu opioid receptor (unknown origin) in presence of DPDPE by [35S]-GTPgammaS binding assay; format: functional
[4] = biological target: T2, Delta-type opioid receptor; experiment: Inhibition of delta opioid receptor (unknown origin) in presence of DPDPE by [35S]-GTPgammaS binding assay; format: functional
[5] = biological target: T3, Kappa-type opioid receptor (Homo sapiens, UniProt P41145); experiment: Inhibition of kappa opioid receptor (unknown origin) in presence of DAMGO by [35S]-GTPgammaS binding assay; format: functional
[6] = biological target: T3, Kappa-type opioid receptor; experiment: Inhibition of kappa opioid receptor (unknown origin) in presence of DPDPE by [35S]-GTPgammaS binding assay; format: functional
[7] = biological target: T2, Delta-type opioid receptor; experiment: Inhibition of delta opioid receptor (unknown origin) in presence of DAMGO by [35S]-GTPgammaS binding assay relative to control; format: functional
[8] = biological target: T1, Mu-type opioid receptor; experiment: Inhibition of mu opioid receptor (unknown origin) in presence of DPDPE by [35S]-GTPgammaS binding assay relative to control; format: functional
[9] = biological target: T2, Delta-type opioid receptor; experiment: Inhibition of delta opioid receptor (unknown origin) in presence of DPDPE by [35S]-GTPgammaS binding assay relative to control; format: functional
[10] = biological target: T3, Kappa-type opioid receptor; experiment: Inhibition of kappa opioid receptor (unknown origin) in presence of DAMGO by [35S]-GTPgammaS binding assay relative to control; format: functional
[11] = biological target: T3, Kappa-type opioid receptor; experiment: Inhibition of kappa opioid receptor (unknown origin) in presence of DPDPE by [35S]-GTPgammaS binding assay relative to control; format: functional
[12] = biological target: T2, Delta-type opioid receptor; experiment: Inhibition of delta opioid receptor (unknown origin) by radioligand binding assay
[13] = biological target: T2, Delta-type opioid receptor; experiment: Inhibition of delta opioid receptor (unknown origin) by MVD assay
[14] = biological target: T1, Mu-type opioid receptor; experiment: Inhibition of mu opioid receptor (unknown origin)
[15] = organism: Homo sapiens; experiment: Selectivity ratio of IC50 for mu opioid receptor (unknown origin) to IC50 for delta opioid receptor (unknown origin) by radioligand binding assay
[16] = organism: Homo sapiens; experiment: Selectivity ratio of IC50 for mu opioid receptor (unknown origin) to IC50 for delta opioid receptor (unknown origin) by MVD assay
[17] = biological target: T2, Delta-type opioid receptor; experiment: Inhibition of full length delta opioid receptor (unknown origin) assessed as inhibition of forskolin-stimulated intracellular cAMP accumulation; format: functional, cell-based
[18] = biological target: T2, Delta-type opioid receptor; experiment: Inhibition of full length delta opioid receptor (unknown origin) assessed as increase in beta arrestin 1 recruitment
[19] = biological target: T2, Delta-type opioid receptor; experiment: Inhibition of full length delta opioid receptor (unknown origin) assessed as increase in beta arrestin 2 recruitment
[20] = biological target: T3, Kappa-type opioid receptor; experiment: Binding affinity to kappa opioid receptor (unknown origin)
[21] = biological target: T1, Mu-type opioid receptor; experiment: Displacement of [3H]DAMGO from mu opioid receptor (unknown origin) expressed in HEK293 cells after 1 hr by liquid scintillation counting; format: cell-based
[22] = tested on: Mus musculus; experiment: Antinociceptive activity in icv dosed mouse; format: functional
[23] = biological target: T3, Kappa-type opioid receptor; experiment: Inhibition of kappa opioid receptor (unknown origin) by [35S]-GTPgammaS binding assay; format: functional
[24] = biological target: Mitogen-activated protein kinase 3 (Homo sapiens, UniProt P27361); experiment: Inhibition of ERK1 phosphorylation (unknown origin)
[25] = biological target: Mitogen-activated protein kinase 1 (Homo sapiens, UniProt P28482); experiment: Inhibition of ERK2 phosphorylation (unknown origin)
[26] = biological target: MAP kinase p38 (Homo sapiens, UniProt O15264+Q15759+Q16539+P53778); experiment: Inhibition of p38 phosphorylation (unknown origin); format: protein assay
[27] = tested on: Mus musculus; experiment: Antinociceptive activity in icv dosed Kunming mouse; format: functional; conditions: central
[28] = tested on: Mus musculus; experiment: Antinociceptive activity in iv dosed Kunming mouse; format: functional
[29] = biological target: T1, Mu-type opioid receptor; experiment: Inhibition of mu opioid receptor (unknown origin) expressed in HEK293 cells assessed as inhibition of forskolin-stimulated intracellular cAMP accumulation preincubated for 30 mins followed by forskolin-stimulation and measured after 60 mins; format: functional, cell-based
[30] = biological target: T1, Mu-type opioid receptor; experiment: Inhibition of mu opioid receptor (unknown origin) expressed in HEK293 cells assessed as inhibition of forskolin-stimulated […] preincubated for 30 mins followed by forskolin-stimulation and measured after 60 mins; format: cell-based
[31] = biological target: T3, Kappa-type opioid receptor; experiment: Inhibition of kappa opioid receptor (unknown origin)
[32] = biological target: T3, Kappa-type opioid receptor; experiment: Inhibition of kappa opioid receptor (unknown origin) relative to control

T3 sequence (P41145 whole entry): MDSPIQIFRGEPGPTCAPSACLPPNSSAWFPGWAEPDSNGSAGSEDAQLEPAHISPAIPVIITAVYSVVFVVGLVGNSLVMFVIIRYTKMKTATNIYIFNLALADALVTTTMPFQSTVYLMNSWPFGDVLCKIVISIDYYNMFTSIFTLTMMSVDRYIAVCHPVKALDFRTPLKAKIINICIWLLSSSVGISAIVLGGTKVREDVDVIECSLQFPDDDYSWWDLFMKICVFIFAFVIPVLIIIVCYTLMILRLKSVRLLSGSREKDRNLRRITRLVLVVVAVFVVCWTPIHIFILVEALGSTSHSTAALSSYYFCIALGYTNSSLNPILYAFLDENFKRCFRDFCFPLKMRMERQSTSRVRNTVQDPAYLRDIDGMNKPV
T2 sequence (P41143 whole entry): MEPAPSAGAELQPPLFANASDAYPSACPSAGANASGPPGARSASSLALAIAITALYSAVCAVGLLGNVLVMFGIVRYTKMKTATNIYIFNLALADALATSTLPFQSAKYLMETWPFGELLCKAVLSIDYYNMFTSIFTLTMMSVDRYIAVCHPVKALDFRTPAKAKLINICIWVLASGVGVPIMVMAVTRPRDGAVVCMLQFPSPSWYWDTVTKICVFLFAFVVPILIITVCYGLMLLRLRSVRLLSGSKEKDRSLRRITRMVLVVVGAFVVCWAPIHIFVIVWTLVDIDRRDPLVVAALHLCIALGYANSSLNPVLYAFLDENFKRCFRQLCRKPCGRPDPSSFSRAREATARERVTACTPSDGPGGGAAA
T1 sequence (P35372 whole entry): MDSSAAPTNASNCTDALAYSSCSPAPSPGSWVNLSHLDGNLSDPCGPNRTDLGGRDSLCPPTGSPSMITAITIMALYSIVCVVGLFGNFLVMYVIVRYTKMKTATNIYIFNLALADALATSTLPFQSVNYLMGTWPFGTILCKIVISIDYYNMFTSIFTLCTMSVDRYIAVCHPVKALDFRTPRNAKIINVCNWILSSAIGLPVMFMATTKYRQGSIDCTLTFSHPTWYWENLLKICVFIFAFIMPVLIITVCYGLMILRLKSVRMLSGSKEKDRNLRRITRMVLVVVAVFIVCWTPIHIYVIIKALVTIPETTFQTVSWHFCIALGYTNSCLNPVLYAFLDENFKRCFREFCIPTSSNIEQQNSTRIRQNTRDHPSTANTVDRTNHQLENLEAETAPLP
Sequence of Mitogen-activated protein kinase 3 (P27361 whole entry): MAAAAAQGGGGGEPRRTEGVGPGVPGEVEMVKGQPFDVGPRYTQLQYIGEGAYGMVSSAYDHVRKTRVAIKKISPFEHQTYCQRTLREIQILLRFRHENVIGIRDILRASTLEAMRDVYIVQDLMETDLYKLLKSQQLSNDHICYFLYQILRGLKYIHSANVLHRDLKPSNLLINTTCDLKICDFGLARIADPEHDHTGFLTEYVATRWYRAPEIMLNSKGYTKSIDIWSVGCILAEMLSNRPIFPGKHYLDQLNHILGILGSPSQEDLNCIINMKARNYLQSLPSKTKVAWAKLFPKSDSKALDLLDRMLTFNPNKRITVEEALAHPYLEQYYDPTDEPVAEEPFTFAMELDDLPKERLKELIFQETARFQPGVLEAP
Sequence of Mitogen-activated protein kinase 1 (P28482 whole entry): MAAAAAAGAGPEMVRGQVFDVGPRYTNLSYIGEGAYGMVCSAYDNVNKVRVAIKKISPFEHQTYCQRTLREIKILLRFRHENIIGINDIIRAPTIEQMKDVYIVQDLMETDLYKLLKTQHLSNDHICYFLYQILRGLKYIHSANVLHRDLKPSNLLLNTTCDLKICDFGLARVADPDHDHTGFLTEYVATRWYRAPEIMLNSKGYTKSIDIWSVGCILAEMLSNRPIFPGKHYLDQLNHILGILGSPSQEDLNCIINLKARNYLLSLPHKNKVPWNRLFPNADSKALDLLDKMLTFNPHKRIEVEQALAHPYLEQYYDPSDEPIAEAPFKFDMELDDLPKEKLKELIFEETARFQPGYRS

SMILES: CC[C@@H]1CN2CC[C@]3(Nc4cccc(OC)c4C3=O)[C@@H]2C[C@@H]1/C(=C\OC)C(=O)OC
- EC50 [1]: 0.0017 µM
- IC50 [1]: 0.00661 µM
- EC50 [2]: 0.0017 µM
- IC50 [2]: 0.0017 µM
- EC50 [3]: 0.0017 µM
- IC50 [3]: 0.000282 µM
- EC50 [4]: 0.0017 µM
- IC50 [4]: 0.00126 µM
- EC50 [5]: 0.0017 µM
- IC50 [5]: 0.132 µM
- EC50 [6]: 0.0017 µM
- IC50 [6]: 0.132 µM
- Emax [7]: 82%
- Emax [8]: 82%
- Emax [9]: 82%
- Emax [10]: 82%
- Emax [11]: 82%

SMILES: CC(C)C[C@H](NC(=O)C1CCCN1C(=O)[C@@H](N)Cc1ccc(O)cc1)C(=O)N[C@@H](CC(=O)O)C(=O)N[C@@H](CC(C)C)C(=O)N[C@@H](Cc1ccccc1)C(=O)O (some centres not stated) (H-Y[ξP]LDLF-OH)
- IC50 [12]: 0.9 µM
- IC50 [13]: 24.4 µM
- IC50 [14]: > 2000 µM
- Ratio IC50 [15]: 500
- Ratio IC50 [16]: 500
- IC50 [17]: 1.58 µM
- EC50 [18]: 7.94 µM
- EC50 [19]: 7.94 µM

SMILES: COC(=O)[C@@H]1C[C@H](OC(=O)CSC#N)C(=O)[C@H]2[C@@]1(C)CC[C@H]1C(=O)O[C@H](c3ccoc3)C[C@]21C [22-THIOCYANATOSALVINORIN A]
- Kd [20]: 0.00059 µM

SMILES: C=C(C(N)=O)C(NC(=O)[C@H](Cc1ccccc1)NC(=O)[C@@H](C)N(C)C(=O)[C@@H](N)Cc1ccc(O)cc1)c1ccccc1 (some centres not stated)
- EC50 [21]: 4000 pM

SMILES: Oc1cccc(CCN(CCc2ccccc2)CC2CCC2)c1
- ED50 [22]: 3.74 nmol

SMILES: Oc1cccc(CCN(CCc2ccccc2)CC2CC2)c1
- EC50 [23]: 0.0367 µM
- ED50 [22]: 6.02 nmol

SMILES: CC[C@@H]1CN2CC[C@]3(Nc4cccc(-c5ccccc5)c4C3=O)[C@@H]2C[C@@H]1/C(=C\OC)C(=O)OC
- EC50 [1]: 0.0014 µM
- EC50 [2]: 0.0014 µM
- EC50 [3]: 0.0014 µM
- EC50 [4]: 0.0014 µM
- EC50 [5]: 0.0014 µM
- EC50 [6]: 0.0014 µM
- Emax [7]: 123%
- Emax [8]: 123%
- Emax [9]: 123%
- Emax [10]: 123%
- Emax [11]: 123%

SMILES: C=C(C(N)=O)C(NC(=O)[C@H](Cc1c[nH]c2ccccc12)NC(=O)[C@@H](C)N(C)C(=O)C(N)Cc1c(C)cc(O)cc1C)c1ccccc1 (some centres not stated)
- EC50 [21]: 1.77 to 5.15 pM
- Ki [21]: 0.0109 to 0.0511 nM

SMILES: CN(C(=O)/C=C/c1ccoc1)[C@@H]1CC[C@@]2(O)[C@H]3Cc4ccc(O)c5c4[C@@]2(CCN3CC2CC2)[C@H]1O5 [NALFURAFINE]
- EC50 [24]: 0.00055 µM
- EC50 [25]: 0.00055 µM
- EC50 [26]: 0.0052 µM

SMILES: C=C(C(N)=O)C(NC(=O)[C@H](Cc1ccccc1)NC(=O)[C@@H](C)N(C)C(=O)C(N)Cc1c(C)cc(O)cc1C)c1ccco1 (some centres not stated)
- EC50 [21]: 1.77 to 5.15 pM
- Ki [21]: 0.0109 to 0.0511 nM
- ED50 [27]: 0.0226 µmol/kg
- ED50 [28]: 0.000489 µmol/kg

SMILES: CN(C)[C@H](CNC(=O)NCCc1cccs1)Cc1cccc2ccccc12
- EC50 [29]: 0.0524 to 0.0911 µM
- EC50 [30]: 0.0524 to 0.0911 µM

SMILES: CN(C)[C@H](CNC(=O)NCCc1ccsc1)Cc1ccc2ccccc2c1
- EC50 [29]: 0.0524 to 0.243 µM
- EC50 [30]: 0.0524 to 0.243 µM

SMILES: COC(=O)[C@@H]1C[C@H](OC(=O)Cl)C(=O)[C@H]2[C@@]1(C)CC[C@H]1C(=O)O[C@H](c3ccoc3)C[C@]21C
- Kd [20]: 0.0021 µM
- EC50 [31]: 0.00019 µM
- Emax [32]: 85%
